Assays:
Rat mGlu2 = target: T1, Rat mGlu2 (Rattus norvegicus, UniProt P31421); assay: mGlu receptor in vitro assay, thallium flux through GIRK channels, rat mGlu2; assay type: cell-based; details: PAM potency with EC20 glutamate
T1 construct: expressed in transfected cells; host or cells: HEK-293 co-expressing GIRK channels
Method: (§1) Human Embryonic Kidney (HEK-293) cell lines co-expressing rat mGlu receptors 2, 3, 4, 6, 7 or 8 and G protein-coupled inwardly-rectifying potassium (GIRK) channels were grown in Growth Media containing 45% DMEM, 45% F-12, 10% FBS, 20 mM HEPES, 2 mM L-glutamine, antibiotic/antimycotic, non-essential amino acids, 700 μg/mL G418, and 0.6 μg/ml puromycin at 37° C. in the presence of 5% CO2. […] All cell culture reagents were purchased from Invitrogen Corp. (Carlsbad, CA) unless otherwise noted. Calcium assays were used to assess activity of compounds at mGlu1 and mGlu5, as previously described in Engers et al (J. Med. Chem. 2009, 52, 4115-4118). Calcium assays at mGlu3 were performed as described for mGlu5 with the exception that TREx293 mGlu3 Gα15 cells were treated with tetracycline at 20 ng/mL for 20 h prior to assay.
(§2) Compound activity at the group II (mGlu2 and mGlu3) and group III (mGlu4, mGlu6, mGlu7, and mGlu8) was assessed using thallium flux through GIRK channels, a method that has been described in detail. Briefly, cells were plated into 384-well, black-walled, clear-bottomed poly-D-lysine-coated plates at a density of 15,000 cells/20 μL/well in DMEM containing 10% dialyzed FBS, 20 mM HEPES, and 100 units/mL penicillin/streptomycin (assay media). Plated cells were incubated overnight at 37° C. in the presence of 5% CO2. The following day, the medium was exchanged from the cells to assay buffer [Hanks' balanced salt solution (Invitrogen) containing 20 mM HEPES, pH 7.3] using an ELX405 microplate washer (BioTek), leaving 20 μL/well, followed by the addition of 20 μL/well FluoZin2-AM (330 nM final concentration) indicator dye (Invitrogen; prepared as a stock in DMSO and mixed in a 1:1 ratio with Pluronic acid F-127) in assay buffer. Cells were incubated for 1 h at room temperature, and the dye exchanged to assay buffer using an ELX405, leaving 20 μL/well. Test compounds were diluted to 2 times their final desired concentration in assay buffer (0.3% DMSO final concentration). Agonists were diluted in thallium buffer [125 mM sodium bicarbonate (added fresh the morning of the experiment), 1 mM magnesium sulfate, 1.8 mM calcium sulfate, 5 mM glucose, 12 mM thallium sulfate, and 10 mM HEPES, pH 7.3] at 5 times the final concentration to be assayed. Cell plates and compound plates were loaded onto a kinetic imaging plate reader (FDSS 6000 or 7000; Hamamatsu Corporation, Bridgewater, NJ). Appropriate baseline readings were taken (10 images at 1 Hz; excitation, 470±20 nm; emission, 540±30 nm) and test compounds were added in a 20 μL volume and incubated for approximately 2.5 min before the addition of 10 μL of thallium buffer with or without agonist. After the addition of agonist, data were collected for approximately an additional 2.5 min. Data were analyzed using Excel (Microsoft Corp, Redmond, WA). The slope of the fluorescence increase beginning 5 s after thallium/agonist addition and ending 15 s after thallium/agonist addition was calculated, corrected to vehicle and maximal agonist control slope values, and plotted in using either XLfit (ID Business Solutions Ltd) or Prism software (GraphPad Software, San Diego, CA) to generate concentration-response curves. Potencies were calculated from fits using a four-point parameter logistic equation. For concentration-response curve experiments, compounds were serially diluted 1:3 into 10-point concentration response curves and were transferred to daughter plates using an Echo acoustic plate reformatter (Labcyte, Sunnyvale, CA). Test compounds were applied and followed by EC20 concentrations of glutamate.

Rat mGlu3 = target: T2, Rat mGlu3 (Rattus norvegicus, UniProt P31422); assay: mGlu receptor in vitro assay (thallium flux through GIRK channels / calcium assay), rat mGlu3; assay type: cell-based; details: PAM potency with EC20 glutamate
T2 construct: expressed in transfected cells; host or cells: HEK-293 co-expressing GIRK channels
T2 sequence (P31422 23-879): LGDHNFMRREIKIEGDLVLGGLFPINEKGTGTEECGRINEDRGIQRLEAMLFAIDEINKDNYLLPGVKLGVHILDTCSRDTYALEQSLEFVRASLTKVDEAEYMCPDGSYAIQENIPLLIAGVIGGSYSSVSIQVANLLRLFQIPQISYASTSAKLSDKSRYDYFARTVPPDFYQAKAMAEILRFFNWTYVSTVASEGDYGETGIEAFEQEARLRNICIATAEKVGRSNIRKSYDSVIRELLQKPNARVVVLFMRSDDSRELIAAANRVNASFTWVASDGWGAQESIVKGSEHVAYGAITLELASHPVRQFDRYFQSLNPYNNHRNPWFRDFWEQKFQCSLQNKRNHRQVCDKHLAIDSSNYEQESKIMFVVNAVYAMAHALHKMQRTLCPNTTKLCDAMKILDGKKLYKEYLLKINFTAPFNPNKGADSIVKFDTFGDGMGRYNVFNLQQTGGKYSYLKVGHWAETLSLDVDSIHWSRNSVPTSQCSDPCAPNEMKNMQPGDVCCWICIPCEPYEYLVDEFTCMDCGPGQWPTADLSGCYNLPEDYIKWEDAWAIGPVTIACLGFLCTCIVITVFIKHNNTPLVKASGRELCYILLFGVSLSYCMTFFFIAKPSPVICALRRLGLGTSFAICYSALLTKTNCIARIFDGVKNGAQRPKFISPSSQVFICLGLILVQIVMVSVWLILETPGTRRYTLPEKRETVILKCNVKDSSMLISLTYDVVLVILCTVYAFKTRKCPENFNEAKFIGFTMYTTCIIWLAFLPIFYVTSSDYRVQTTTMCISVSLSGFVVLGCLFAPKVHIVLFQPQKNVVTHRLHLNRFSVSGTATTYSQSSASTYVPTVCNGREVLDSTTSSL
Method: as §1, §2

T1 sequence (P31421 19-872): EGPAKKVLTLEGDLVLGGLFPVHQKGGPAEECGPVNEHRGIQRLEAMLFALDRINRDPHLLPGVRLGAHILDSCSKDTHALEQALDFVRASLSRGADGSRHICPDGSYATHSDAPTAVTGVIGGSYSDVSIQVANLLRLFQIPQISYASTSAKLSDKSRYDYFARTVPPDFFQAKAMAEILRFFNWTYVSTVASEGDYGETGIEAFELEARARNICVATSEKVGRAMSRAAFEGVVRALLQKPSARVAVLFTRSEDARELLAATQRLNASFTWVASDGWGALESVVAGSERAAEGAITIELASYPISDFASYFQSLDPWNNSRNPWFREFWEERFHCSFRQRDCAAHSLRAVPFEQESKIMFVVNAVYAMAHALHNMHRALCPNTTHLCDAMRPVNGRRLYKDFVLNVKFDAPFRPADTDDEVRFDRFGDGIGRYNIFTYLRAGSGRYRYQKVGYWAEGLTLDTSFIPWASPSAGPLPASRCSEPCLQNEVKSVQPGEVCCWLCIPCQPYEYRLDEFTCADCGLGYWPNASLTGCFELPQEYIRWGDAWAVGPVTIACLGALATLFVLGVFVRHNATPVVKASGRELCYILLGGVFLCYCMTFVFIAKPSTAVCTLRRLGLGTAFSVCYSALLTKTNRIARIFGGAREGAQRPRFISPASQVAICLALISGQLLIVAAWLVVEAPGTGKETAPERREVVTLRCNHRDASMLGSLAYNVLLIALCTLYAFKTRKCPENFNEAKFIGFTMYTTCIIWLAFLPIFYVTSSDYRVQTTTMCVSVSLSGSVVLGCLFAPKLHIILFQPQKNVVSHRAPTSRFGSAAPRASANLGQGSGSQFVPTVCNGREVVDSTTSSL

Row | Compound | EC50 (Rat mGlu2) | EC50 (Rat mGlu3)
1 | COc1ccc(C(=O)O)cc1OCCOCCOc1ccc(C(=O)CC(C)(C)C)c(O)c1C [Example 1, 3-(2-(2-(4-(3,3-Dimethylbutanoyl)-3-hydroxy-2-methylphenoxy)ethoxy)ethoxy)-4-methoxybenzoic acid] | 18 nM | 52 nM
2 | CCCC(=O)c1ccc(OC/C=C/COc2ccc(C(=O)O)cc2OC)c(C)c1O [Example 6, (E)-4-((4-(4-Butyryl-3-hydroxy-2-methylphenoxy)but-2-en-1-yl)oxy)-3-methoxybenzoic acid] | 4 nM | 2590 nM
3 | CCCC(=O)c1ccc(OCCSCCOc2ccc(C(=O)O)cc2OC)c(C)c1O [Example 15, 4-{2-[2-(4-Butanoyl-3-hydroxy-2-methylphenoxy)ethylthio]ethoxy}-3-methoxybenzoic acid] | 18 nM | > 30000 nM
4 | Cc1c(OC/C=C/COc2ccc(C(=O)CC(C)(C)C)c(O)c2C)cccc1C(=O)O [Example 21, 3-{(2E)-4-[4-(3,3-Dimethylbutanoyl)-3-hydroxy-2-methylphenoxy]but-2-enyloxy}-2-methylbenzoic acid] | 38 nM | 73 nM
5 | COc1ccc(C(=O)O)cc1OCC(C)CCOc1ccc(C(=O)CC(C)(C)C)c(O)c1C (stereo not shown) [Example 32, 3-{4-[4-(3,3-Dimethylbutanoyl)-3-hydroxy-2-methylphenoxy]-2-methylbutoxy}-4-methoxybenzoic acid] | 127 nM | 200 nM
6 | CCCC(=O)c1ccc(OCC#CCOc2ccc(C(=O)O)cc2OC)c(C)c1O [Example 34, 4-[4-(4-Butanoyl-3-hydroxy-2-methylphenoxy)but-2-ynyloxy]-3-methoxybenzoic acid] | 31 nM | 1900 nM
7 | CCCC(=O)c1ccc(OCCS(=O)(=O)CCOc2ccc(C(=O)O)c(Cl)c2)c(C)c1O [Example 37, 4-(2-{[2-(4-Butanoyl-3-hydroxy-2-methylphenoxy)ethyl]sulfonyl}ethoxy)-2-chlorobenzoic acid] | > 10000 nM | > 30000 nM
8 | CCCC(=O)c1ccc(OCCS(=O)(=O)CCOc2cccc(C(=O)O)c2C)c(C)c1O [Example 38, 3-(2-{[2-(4-Butanoyl-3-hydroxy-2-methylphenoxy)ethyl]sulfonyl}ethoxy)-2-methylbenzoic acid] | > 10000 nM | > 30000 nM
9 | CCCC(=O)c1ccc(OCC[S+]([O-])CCOc2cccc(C(=O)O)c2C)c(C)c1O (stereo not shown) [Example 39, 3-(2-{[2-(4-Butanoyl-3-hydroxy-2-methylphenoxy)ethyl]sulfinyl}ethoxy)-2-methylbenzoic acid] | > 10000 nM | > 30000 nM
10 | CCCC(=O)c1ccc(OCC[S+]([O-])CCOc2ccc(C(=O)O)c(Cl)c2)c(C)c1O (stereo not shown) [Example 40, 4-(2-{[2-(4-Butanoyl-3-hydroxy-2-methylphenoxy)ethyl]sulfinyl}ethoxy)-2-chlorobenzoic acid] | 591 nM | > 30000 nM
11 | CCCC(=O)c1ccc(OCC#CCOc2ccc(C(=O)O)c(Cl)c2)c(C)c1O [Example 43, 4-[4-(4-Butanoyl-3-hydroxy-2-methylphenoxy)but-2-ynyloxy]-2-chlorobenzoic acid] | 33 nM | > 10000 nM
12 | Cc1c(OCCCCCOc2ccc(F)c(C(=O)O)c2)ccc(C(=O)CC(C)C)c1O [Example 47, 2-Fluoro-5-{5-[3-hydroxy-2-methyl-4-(3-methylbutanoyl)phenoxy]pentyloxy}benzoic acid] | 113 nM | 2040 nM
13 | CCCC(=O)c1ccc(OCCCCCOc2ccc(F)c(C(=O)O)c2)c(C)c1O [Example 48, 5-[5-(4-Butanoyl-3-hydroxy-2-methylphenoxy)pentyloxy]-2-fluorobenzoic acid] | 39 nM | > 10000 nM
14 | CCCCC(=O)c1ccc(OCCCCCOc2cccc(C(=O)O)c2C)c(C)c1O [Example 49, 3-[5-(3Hydroxy-2-methyl-4-pentanoylphenoxy)pentyloxy]-2-methylbenzoic acid] | 426 nM | > 10000 nM
15 | CCCC(=O)c1ccc(OCCCCCCOc2cccc(C(=O)O)c2C)c(C)c1O [Example 55, 3-[6-(4-Butanoyl-3-hydroxy-2-methylphenoxy)hexyloxy]-2-methylbenzoic acid] | 182 nM | 1170 nM
16 | Cc1c(OCc2cccc(-c3cccc(S(N)(=O)=O)c3)c2)ccc(C(=O)CC(C)(C)C)c1O [Example 163, 3′-((4-(3,3-Dimethylbutanoyl)-3-hydroxy-2-methylphenoxy)methyl)-[1,1′-biphenyl]-3-sulfonamide] | 1360 nM | > 30000 nM
17 | Cc1c(SCc2cccc(-c3cccc(C(=O)O)c3)c2)ccc(C(=O)CC(C)(C)C)c1O [Example 165, 3′-(((4-(3,3-Dimethylbutanoyl)-3-hydroxy-2-methylphenyl)thio)methyl)-[1,1′-biphenyl]-3-carboxylic acid] | 337 nM | 2530 nM
18 | Cc1c(OCc2cccc(-c3cccc(C(=O)O)c3)c2)ccc(C(=O)c2ccccc2)c1O [compound 66, 3′-((4-Benzoyl-3-hydroxy-2-methylphenoxy)methyl)-[1,1′-biphenyl]-3-carboxylic acid] | 769 nM | 2280 nM
19 | Cc1c(OCc2cnc(-c3cccc(C(=O)O)c3)cn2)ccc(C(=O)c2ccccc2)c1O [compound 67, 3-(5-((4-Benzoyl-3-hydroxy-2-methylphenoxy)methyl)pyrazin-2-yl)benzoic acid] | 1800 nM | 625 nM
20 | Cc1c(OCc2cccc(-c3cccc(C(=O)O)c3)c2)ccc(C(=O)C2CC2)c1O [compound 68, 3′-((4-(Cyclopropanecarbonyl)-3-hydroxy-2-methylphenoxy)methyl)-[1,1′-biphenyl]-3-carboxylic acid] | 186 nM | 3730 nM
21 | Cc1c(OCc2cnc(-c3cccc(C(=O)O)c3)cn2)ccc(C(=O)C2CC2)c1O [compound 70, 3-(5-((4-(Cyclopropanecarbonyl)-3-hydroxy-2-methylphenoxy)methyl)pyrazin-2-yl)benzoic acid] | 824 nM | 2550 nM
22 | Cc1c(SCCCCOc2cccc(C(=O)O)c2)ccc(C(=O)CC(C)(C)C)c1O [compound 83] | 549 nM | 3290 nM
23 | Cc1c(OCCCCNc2cccc(C(=O)O)c2)ccc(C(=O)CC(C)(C)C)c1O [compound 85, 3-((4-(4-(3,3-Dimethylbutanoyl)-3-hydroxy-2-methylphenoxy)butyl)amino)benzoic acid] | 128 nM | 810 nM
24 | Cc1nc(-c2cccc(-c3cnc(COc4ccc(C(=O)CC(C)(C)C)c(O)c4C)cn3)c2)no1 [compound 86, 1-(2-Hydroxy-3-methyl-4-((5-(3-(5-methyl-1,2,4-oxadiazol-3-yl)phenyl)pyrazin-2-yl)methoxy)phenyl)-3,3-dimethylbutan-1-one] | > 30000 nM | > 10000 nM
25 | COc1ccc(NC(=O)NS(C)(=O)=O)cc1OCCCCOc1ccc(C(=O)CC(C)(C)C)c(O)c1C [compound 87, N-((3-(4-(4-(3,3-dimethylbutanoyl)-3-hydroxy-2-methylphenoxy)butoxy)-4-methoxyphenyl)carbamoyl)methanesulfonamide] | 1320 nM | 2390 nM
26 | Cc1c(OCc2cccc(-c3cccc(NC(=O)NS(C)(=O)=O)c3)c2)ccc(C(=O)CC(C)(C)C)c1O [compound 88, N-((3′-((4-(3,3-Dimethylbutanoyl)-3-hydroxy-2-methylphenoxy)methyl)-[1,1′-biphenyl]-3-yl)carbamoyl)methanesulfonamide] | 1530 nM | > 10000 nM

From patent US20250179000A1 (Sanford Burnham Prebys Medical Discovery Institute, priority 2021, published 2025)
